From ChEMBL document CHEMBL5727676, “Bromodomain inhibitors” (2020) come the findings set out here.

The target of assay [1] is T1, Bromodomain-containing protein 4 (Homo sapiens, UniProt O60885). Kind of assay: (§1) TR-FRET Assay: Compound dilution series were prepared in DMSO via an approximately 3-fold serial dilution. Compound dilutions were added directly into white, low-volume assay plates (Perkin Elmer Proxiplate 384 Plus#6008280) using a Labcyte Echo in conjunction with Labcyte Access and Thermo Multidrop CombinL robotics. Compounds were then suspended in eight microliters (μL) of assay buffer (20 mM Sodium Phosphate, pH 6.0, 50 mM NaCl, 1 mM Ethylenediaminetetraacetic acid disodium salt dihydrate, 0.01% Triton X-100, 1 mM DL-Dithiothreitol) containing His-tagged bromodomain, Europium-conjugated anti-His antibody (Invitrogen PV5596) and Alexa-647-conjugated probe.The final concentration of 1× assay mixture contained 2% DMSO, 12 nM His tagged BRD4 (BDI_K57-E168) and 100 nM probe or 4 nM His tagged BRD4 (BDII_E352-M457) and 30 nM probe, and 1 nM Europium-conjugated anti-His-tag antibody, and compound concentrations in the range of: 49.02 μM-0.61 nM or 0.98 μM-0.15 nM.After a one-hour equilibration at room temperature, TR-FRET ratios were determined using an Envision multilabel plate reader (Ex 340, […]).

The target of assay [2] is T1, Bromodomain-containing protein 4. Described as §1. The source holds these as a separate data set.

Consider `Cc1cccc(C)c1Oc1ccc(C(C)(O)CC(C)C)cc1-c1cn(C)c(=O)c2[nH]c(C(=O)NC(C)(C)C)cc12` (centres undefined), for which the Ki came out at 6690 nM in assay [1] and 6.6 nM in assay [2].

As to `Cc1cc(F)cc(Cl)c1Oc1ccc(C(C)(C)O)cc1-c1cn(C)c(=O)c2[nH]c(C(=O)NC3(C)CC3(F)F)cc12` (centres undefined), the Ki in assay [1] worked out at 1770 nM; in assay [2], 7.4 nM.

A word on the Ki: it is the equilibrium dissociation constant of an inhibitor or competing ligand from its target.
